One may read the IC50 as the concentration needed to halve the response being measured. For orientation: Cmax means the peak of the concentration-time curve.

The source of these data is ChEMBL document CHEMBL2163289, “The discovery of N-[5-(4-bromophenyl)-6-[2-[(5-bromo-2-pyrimidinyl)oxy]ethoxy]-4-pyrimidinyl]-N'-propylsulfamide (Macitentan), an orally active, potent dual endothelin receptor antagonist” (J Med Chem, 2012).

In data set [1] the target is T1, Endothelin-1 receptor (Homo sapiens, UniProt P25101).
T1 sequence (P25101 whole entry): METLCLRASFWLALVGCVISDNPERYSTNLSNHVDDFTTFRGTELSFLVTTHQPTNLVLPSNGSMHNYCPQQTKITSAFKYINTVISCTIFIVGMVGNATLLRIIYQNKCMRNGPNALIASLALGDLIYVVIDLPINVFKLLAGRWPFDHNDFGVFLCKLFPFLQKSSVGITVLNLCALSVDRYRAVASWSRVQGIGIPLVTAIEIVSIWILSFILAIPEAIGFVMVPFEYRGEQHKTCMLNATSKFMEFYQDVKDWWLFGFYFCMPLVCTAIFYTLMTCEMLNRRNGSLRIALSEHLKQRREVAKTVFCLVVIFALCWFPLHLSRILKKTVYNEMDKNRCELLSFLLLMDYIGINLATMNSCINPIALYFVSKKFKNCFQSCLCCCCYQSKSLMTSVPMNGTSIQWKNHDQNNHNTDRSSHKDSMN
The data set is described as follows: Displacement of [I125]ET1 from recombinant ETA receptor expressed in CHO cells after 2 hrs by TopCount analysis. In kind it is cell-based.

In data set [2] the test system is Rattus norvegicus. Kind of data set: Antihypertensive activity in telemeterized hypertensive Dahl salt-sensitive rat assessed as reduction in mean arterial blood pressure at 3 mg/kg, po measured over 6 hrs. Type of data set: functional, Artery.
The subject of data set [3] is Rattus norvegicus. The data set is described as follows: Cmax in Wistar rat assessed as N-[5-(4-Bromophenyl)-6-[2-[(5-bromo-2-pyrimidinyl)oxy]ethoxy]-4-pyrimidinyl]-sulfamide level at 10 mg/kg, po at 6 hrs. The following applies: in vivo. More on the design: dose 10 mg/kg, route oral. Type of data set: ADME, organism-based.
Data set [4] deals with Rattus norvegicus. The data set is described as follows: Effect on heart rate in telemeterized hypertensive Dahl salt-sensitive rat at 3 mg/kg, po.

Structures are written as SMILES. Activity calls are given as the source filed them. The calls are words filed in the database; no cut-off is given here. Where a SMILES comes first, the peptide text is derived from it. [ ]: non-standard residue; d: D form.

For the compound `COc1ccccc1Oc1c(NS(=O)(=O)c2ccc(C(C)(C)C)cc2)nc(-c2ncccn2)nc1OCCOc1ncc(Br)cn1`, the IC50 in data set [1] is 1.5 nM. For the compound `CN(Cc1ccccc1)S(=O)(=O)Nc1ncnc(OCCOc2ncc(Br)cn2)c1-c1ccc(Br)cc1`, the IC50 in data set [1] was determined as 4.3 nM. Take `CCCCS(=O)(=O)Nc1nc(-c2ncccn2)nc(OCCOc2ncc(Br)cn2)c1Oc1ccccc1OC`: the concentration for half-maximal inhibition (IC50) in data set [1] was found to be 4.3 nM. As for `COc1ccccc1Oc1c(NS(=O)(=O)NCc2ccccc2)nc(-c2ccncc2)nc1OCCOc1ncc(Br)cn1`, the 50% inhibitory concentration (IC50) in data set [1] came to 3.4 nM. Same read-out and setting: under `COc1ccccc1Oc1c(NS(=O)(=O)CCc2ccccc2)nc(-c2ncccn2)nc1OCCOc1ncc(SC)cn1` stands 1.1 nM. For the compound `CCCCS(=O)(=O)Nc1ncnc(OCCOc2ncc(Br)cn2)c1-c1ccc(Br)cc1`, in data set [2], the “Fall in mean arterial blood pressure” value is 22 mmHg. Also, in data set [1], the half-maximal inhibitory concentration (IC50) was determined as 1.1 nM. In the case of `CC(C)c1ccc(-c2c(NS(=O)(=O)NCc3ccccc3)ncnc2OCCOc2ncc(Br)cn2)cc1`, the half-inhibitory concentration (IC50) in data set [1] is 3.6 nM. `Cc1ccc(-c2c(NS(=O)(=O)NCc3ccccc3)ncnc2OCCOc2ncc(Br)cn2)cc1`: the IC50 in data set [1] turned out to be 0.7 nM.

As for `CC(C)C[C@@H]1NC(=O)[C@@H](C(C)C)NC(=O)[C@@H]2CCCN2C(=O)[C@@H](CC(=O)O)NC(=O)[C@@H](Cc2c[nH]c3ccccc23)NC1=O` [BQ-123] (cyclo(L[dW][dD]P[dV])), the half-inhibitory concentration (IC50) in data set [1] turned out to be 20.5 nM. On to `COc1ccccc1Oc1c(NS(=O)(=O)NCc2ccccc2)nc(N2CCOCC2)nc1OCCOc1ncc(Br)cn1`, for which the concentration for half-maximal inhibition (IC50) in data set [1] was found to be 1.4 nM. On the same count and under the same terms, under `CCc1ccc(-c2c(NS(=O)(=O)NCc3ccccc3)ncnc2OCCOc2ncc(Br)cn2)cc1` stands 2.3 nM; under `O=S(=O)(Nc1ncnc(OCCOc2ncc(Br)cn2)c1-c1ccc(Br)cc1)N1CCOCC1`, 2.8 nM; under `COc1ccccc1Oc1c(NS(=O)(=O)NCc2ccccc2)ncnc1OCCOc1ncc(Br)cn1`, 6.9 nM. For the compound `COc1ccccc1Oc1c(NS(C)(=O)=O)nc(-c2ncccn2)nc1OCCO`, the IC50 in data set [1] is 4530 nM. For the compound `O=S(=O)(NCc1ccccc1)Nc1ncnc(OCCOc2ncc(Br)cn2)c1-c1ccccc1`, the half-inhibitory concentration (IC50) in data set [1] is 6.8 nM.

Regarding `CCS(=O)(=O)Nc1nc(-c2ncccn2)nc(OCCOc2ncc(Br)cn2)c1Oc1ccccc1OC`, the IC50 in data set [1] turned out to be 14 nM. As for `NS(=O)(=O)Nc1ncnc(OCCOc2ncc(Br)cn2)c1-c1ccc(Br)cc1` [APROCITENTAN], in data set [1], the IC50 turned out to be 3.4 nM.

With `COc1ccccc1Oc1c(NS(C)(=O)=O)nc(-c2ncccn2)nc1OCCOc1ncc(Br)cn1`, in data set [1], the 50% inhibitory concentration (IC50) came to 113 nM. `COc1ccccc1Oc1c(NS(=O)(=O)CCc2ccccc2)nc(-c2ncccn2)nc1OCCOc1ncc(C(F)(F)F)cn1`: in data set [1], the half-maximal inhibitory concentration (IC50) came to 3 nM. Turning to `CNS(=O)(=O)Nc1ncnc(OCCOc2ncc(Br)cn2)c1-c1ccc(Br)cc1`, in data set [2], the “Fall in mean arterial blood pressure” value was 21 mmHg. Moreover, the IC50 in data set [1] was 1.7 nM. For `CC[C@H](C)[C@H](NC(=O)[C@@H](NC(=O)[C@H](CC(=O)O)NC(=O)[C@H](CCC(N)=O)NC(=O)[C@H](Cc1cnc[nH]1)NC(=O)[C@@H]1CSSC[C@H](N)C(=O)N[C@@H]([C@@H](C)O)C(=O)N[C@H]2CSSC[C@H](NC(=O)[C@H](CCC(=O)O)NC(=O)[C@H](CCC(=O)O)NC(=O)[C@H](CC(=O)O)NC(=O)[C@H]([C@@H](C)O)NC(=O)[C@H](CCSC)NC(=O)[C@H](CC(=O)O)NC(=O)[C@H](CC(N)=O)NC2=O)C(=O)N[C@@H](CC(C)C)C(=O)N[C@@H](CC(N)=O)C(=O)N[C@@H](Cc2ccccc2)C(=O)N1)C(C)C)C(=O)N[C@@H](Cc1c[nH]c2ccccc12)C(=O)O` [SARAFOTOXIN 6C], the IC50 in data set [1] was more than 100 nM.

`CCCCNS(=O)(=O)Nc1ncnc(OCCOc2ncc(Br)cn2)c1-c1ccc(Br)cc1`: in data set [3], the highest concentration (Cmax) came to 4100 ng/mL. Moreover, the “Fall in mean arterial blood pressure” value in data set [2] is reported as 16 mmHg. The IC50 in data set [1] was determined as 0.3 nM.

As for `CCNS(=O)(=O)Nc1ncnc(OCCOc2ncc(Br)cn2)c1-c1ccc(Br)cc1`, the “Fall in mean arterial blood pressure” value in data set [2] is 20 mmHg. Moreover, in data set [1], the IC50 turned out to be 0.8 nM. Consider `O=S(=O)(NCc1ccccc1)Nc1ncnc(OCCOc2ncc(Br)cn2)c1-c1ccc(Br)cc1`, for which the “Fall in mean arterial blood pressure” value in data set [2] is on record as 14 mmHg. Also, the IC50 in data set [1] turned out to be 1.6 nM. Also, the result in data set [4] was inactive.

In the case of `COc1ccccc1Oc1c(NS(C)(=O)=O)nc(-c2ncccn2)nc1OCCOc1ncccn1`, the IC50 in data set [1] came out at 739 nM. For `COc1ccccc1Oc1c(NS(=O)(=O)CCc2ccccc2)nc(-c2ncccn2)nc1OCCOc1ncc(C)cn1`, the IC50 in data set [1] worked out at 17.8 nM. Take `COc1nc(NS(=O)(=O)NCc2ccccc2)c(Oc2ccccc2OC)c(OCCOc2ncc(Br)cn2)n1`: the half-inhibitory concentration (IC50) in data set [1] is 40 nM. Regarding `COc1ccccc1Oc1c(NS(=O)(=O)c2ccc(C(C)(C)C)cc2)nc(-c2ncccn2)nc1OCCOc1ncccn1`, the half-maximal inhibitory concentration (IC50) in data set [1] is 4.3 nM. Same read-out and setting: the same measure for `COc1ccccc1Oc1c(NS(=O)(=O)CCc2ccccc2)nc(-c2ncccn2)nc1OCCOc1ncccn1`: 8 nM; for `COc1ccccc1Oc1c(NS(=O)(=O)NCc2ccccc2)nc(-c2cnccn2)nc1OCCOc1ncc(Br)cn1`: 2.1 nM; for `COc1ccccc1Oc1c(NS(=O)(=O)CCCc2ccccc2)nc(-c2ncccn2)nc1OCCOc1ncc(Br)cn1`: 6.7 nM. Regarding `CCCNS(=O)(=O)Nc1ncnc(OCCOc2ncc(Br)cn2)c1Oc1cccc(OC)c1`, the “Fall in mean arterial blood pressure” value in data set [2] was 15 mmHg. Moreover, in data set [1], the IC50 was 1.9 nM. For `CCCNS(=O)(=O)Nc1ncnc(OCCOc2ncc(Br)cn2)c1Oc1cc(OC)ccc1Cl`, in data set [2], the “Fall in mean arterial blood pressure” value was found to be 21 mmHg. The half-inhibitory concentration (IC50) in data set [1] is 0.4 nM. For the compound `COc1ccccc1Oc1c(NS(=O)(=O)Cc2ccccc2)nc(-c2ncccn2)nc1OCCOc1ncc(Br)cn1`, the half-inhibitory concentration (IC50) in data set [1] turned out to be 73 nM. In the case of `COc1cnc(OCCOc2nc(-c3ncccn3)nc(NS(=O)(=O)CCc3ccccc3)c2Oc2ccccc2OC)nc1`, the IC50 in data set [1] stood at 3.2 nM. On the same count and under the same terms, under `CCCNS(=O)(=O)Nc1ncnc(OCCOc2ncc(Br)cn2)c1-c1ccc(Cl)cc1` stands 1.2 nM. For `COCCOc1nc(NS(=O)(=O)NCc2ccccc2)c(Oc2ccccc2OC)c(OCCOc2ncc(Br)cn2)n1`, in data set [1], the half-inhibitory concentration (IC50) is 6.9 nM. Take `COc1cccc(Oc2c(NS(=O)(=O)NCc3ccccc3)ncnc2OCCOc2ncc(Br)cn2)c1`: the “Fall in mean arterial blood pressure” value in data set [2] stood at 10 mmHg. The IC50 in data set [1] came out at 1 nM. In data set [4], the outcome was inactive. For `COc1ccccc1Oc1c(NS(=O)(=O)CCc2ccccc2)nc(-c2ncccn2)nc1OCCO`, the IC50 in data set [1] turned out to be 25.7 nM.

For `COc1ccc(Cl)c(Oc2c(NS(=O)(=O)NCc3ccccc3)ncnc2OCCOc2ncc(Br)cn2)c1`, the “Fall in mean arterial blood pressure” value in data set [2] is 24 mmHg. For the same compound, in data set [1], the half-maximal inhibitory concentration (IC50) turned out to be 1.4 nM. For the same compound, the result in data set [4] was inactive.

Take `COc1ccccc1Oc1c(NS(=O)(=O)NCc2ccccc2)nc(-c2ncccn2)nc1OCCOc1ncc(Br)cn1`: the IC50 in data set [1] was determined as 1.9 nM.

As to `COc1ccccc1Oc1c(NS(=O)(=O)CCc2ccccc2)nc(-c2ncccn2)nc1OCCOc1ncc(Cl)cn1`, the IC50 in data set [1] was 2.8 nM.

With `CNS(=O)(=O)Nc1nc(-c2ncccn2)nc(OCCOc2ncc(Br)cn2)c1Oc1ccccc1OC`, the IC50 in data set [1] was 7.9 nM.

In the case of `COc1ccccc1Oc1c(NS(=O)(=O)CCc2ccccc2)nc(-c2ncccn2)nc1OCCOc1ncc(Br)cn1`, the IC50 in data set [1] is 2.2 nM.

As for `O=S(=O)(NCc1ccccc1)Nc1ncnc(OCCOc2ncc(Br)cn2)c1-c1ccc(Cl)cc1`, in data set [2], the “Fall in mean arterial blood pressure” value stood at 18 mmHg. For the same compound, the half-maximal inhibitory concentration (IC50) in data set [1] came out at 1.4 nM. Also, in data set [4], the result was inactive. On to `COc1cc(OC)nc(OCCOc2nc(-c3ncccn3)nc(NS(=O)(=O)CCc3ccccc3)c2Oc2ccccc2OC)n1`, for which the IC50 in data set [1] is 4780 nM. Take `CCCCNS(=O)(=O)Nc1nc(-c2ncccn2)nc(OCCOc2ncc(Br)cn2)c1Oc1ccccc1OC`: the IC50 in data set [1] is 1.7 nM. For `CCCS(=O)(=O)Nc1nc(-c2ncccn2)nc(OCCOc2ncc(Br)cn2)c1Oc1ccccc1OC`, the concentration for half-maximal inhibition (IC50) in data set [1] stood at 9.4 nM. With `CCNS(=O)(=O)Nc1nc(-c2ncccn2)nc(OCCOc2ncc(Br)cn2)c1Oc1ccccc1OC`, the IC50 in data set [1] came out at 9.9 nM. On to `COc1ccccc1Oc1c(NS(=O)(=O)CCc2ccccc2)nc(-c2ncccn2)nc1OCCOc1ncc(C2CC2)cn1`, for which the half-maximal inhibitory concentration (IC50) in data set [1] was determined as 7.7 nM. For `CCCS(=O)(=O)Nc1ncnc(OCCOc2ncc(Br)cn2)c1-c1ccc(Br)cc1`, the “Fall in mean arterial blood pressure” value in data set [2] was determined as 25 mmHg. For the same compound, in data set [1], the IC50 came to 2.2 nM.

For the compound `COc1ccccc1Oc1c(NS(=O)(=O)N(C)Cc2ccccc2)nc(-c2ncccn2)nc1OCCOc1ncc(Br)cn1`, the IC50 in data set [1] came out at 7 nM.

Turning to `COc1ccccc1Oc1c(NS(=O)(=O)c2ccccc2)nc(-c2ncccn2)nc1OCCOc1ncc(Br)cn1`, the IC50 in data set [1] is 10.4 nM.

Consider `CCCNS(=O)(=O)Nc1nc(-c2ncccn2)nc(OCCOc2ncc(Br)cn2)c1Oc1ccccc1OC`, for which the IC50 in data set [1] amounted to 3.8 nM. Regarding `COc1ccccc1Oc1c(NS(=O)(=O)NCc2ccccc2)nc(C2CC2)nc1OCCOc1ncc(Br)cn1`, the 50% inhibitory concentration (IC50) in data set [1] was found to be 14 nM. As to `COc1ccccc1Oc1c(NS(=O)(=O)N2CCOCC2)nc(-c2ncccn2)nc1OCCOc1ncc(Br)cn1`, the IC50 in data set [1] turned out to be 187 nM.
